Measurements from patent US6869960B2, “N-substituted spiropiperidine compounds as ligands for ORL-1 receptor” (Pfizer Inc., priority 2002, dated 2005).

Target: T1, human ORL1 receptor (Homo sapiens, UniProt P41146)
T1 construct: expressed in transfected cells; host or cells: HEK-293 cell membranes
Assay: ORL1 receptor functional assay ([35S]GTPγS binding, nociceptin stimulated)
Format: biochemical
Conditions: at 10 nM nociceptin stimulation; human ORL1 receptor transfected HEK-293 cell membranes
Method: IC50(ORL1-receptors)nM/IC50(mu-receptors)nM<1.0 ORL1 Receptor Functional Assay • The human ORL1 receptor transfected HEK-293 cell membranes are incubated with 400 pM [^35S]GTPγS, 10 or 50 nM nociceptin and various concentrations of test compounds in assay buffer (20 mM HEPES, 100 mM NaCl, 5 mM MgCl2, 1 mM EDTA, […], 1 mM DTT, pH7.4) containing 1.5 mg of wheat germ agglutinin-coated SPA beads for 60 or 90 min at 25° C. in a final volume of 200 μl. Basal binding is assessed in the absence of nociceptin and non-specific binding is defined by the addition of unlabelled […]. Membrane-bound radioactivity is detected by a Liquid Scintillation Counter. […] Analgesic Tests Tail Flick Test in Mice • The latency time to withdrawal f the tail from radiant heat stimulation is recorded before and after administration of test compounds. Cut-off time is set to 8 sec. Acetic Acid Writhing Test in Mice • Acetic acid saline solution of 0.7% (v/v) is injected intraperitoneally (0.16 ml/10 g body weight) to mice. Test compounds are administered before acetic acid injection. As soon as acetic acid injection, animals are placed in a 1 liter beaker and writhing is recorded for 15 min. Formalin Licking Test in Mice • Formalin-induced hind paw licking is initiated by a 20 micro liters subcutaneous injection of a 2% formaline solution into a hind paw of mice. […]

T1 sequence (P41146 whole entry): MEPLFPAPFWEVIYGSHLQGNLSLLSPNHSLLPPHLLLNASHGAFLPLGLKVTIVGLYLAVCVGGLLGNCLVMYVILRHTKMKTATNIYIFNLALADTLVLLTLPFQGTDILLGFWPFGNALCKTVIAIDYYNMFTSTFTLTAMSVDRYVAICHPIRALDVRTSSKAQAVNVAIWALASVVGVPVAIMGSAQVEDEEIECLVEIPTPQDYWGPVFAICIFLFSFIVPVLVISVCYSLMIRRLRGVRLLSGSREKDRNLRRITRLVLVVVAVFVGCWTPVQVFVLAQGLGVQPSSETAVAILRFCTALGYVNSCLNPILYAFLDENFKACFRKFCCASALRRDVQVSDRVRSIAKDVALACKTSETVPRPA

Row | Compound | IC50
1 | O=C1COc2cccc3c2N1CC(CN1CCC2(CCc4ccccc42)CC1)C3 (centres unmarked) [Example 20, 6-(2,3-Dihydro-1′H-spiro[indene-1,4′piperidin]-1′-ylmethyl)-6,7-dihydro-5H-[1,4]oxazino[2,3,4-ij]quinolin-3(2H)-one] | 13 nM
2 | CN1CC2(CCN(CC3Cc4cccc(O)c4NC3=O)CC2)c2ccccc21 (centres unmarked) [Example 31, 8-Hydroxy-3-[(1-methyl-1,2-dihydro-1′H-spiro[indole-3,4′-piperidin]-1′-yl)methyl]-3,4-dihydroquinolin-2(1H)-one] | 13 nM
